Reference: patent US9023789B2, “Amylin analogs and pharmaceutical compositions thereof” (Novo Nordisk A/S, priority 2012, dated 2015)
Numbered stars: 1 amine (or outer) side, 2 acyl side, 3 side chain; on linkers, the order of the positions; unused ones are H or OH. Bridge positions count the residues as written; N and C are the ends. Side chains are listed from the residue outwards. Peptide text beside a SMILES is read from it. * marks the point of attachment. C20 diacid = O=C(O)CCCCCCCCCCCCCCCCCCC(=O)*; γGlu = O=C(O)[C@H](CCC(=O)[*:2])N[*:1]; AEEA = NCCOCCOCC(=O)O

Legend:
[1] = target: T1, human amylin 3(a) receptor (human calcitonin receptor + RAMP-3) in BHK570 cells (Homo sapiens, UniProt O60896+P30988); assay: ASSAY (II)a functional assay, human amylin receptor (CRE luciferase); assay type: cell-based; conditions: for EC50: human amylin receptor functional potency, assay (II), read-out: hAmylin-R funct. EC50
T1 construct: expressed in transfected cells
T1 sequence (O60896 24-148, one chain of several): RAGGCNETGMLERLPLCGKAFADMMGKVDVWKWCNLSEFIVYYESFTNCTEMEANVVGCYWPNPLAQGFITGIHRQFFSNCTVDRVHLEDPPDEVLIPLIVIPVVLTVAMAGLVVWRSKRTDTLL
In short: (§1)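 Read-out: CRE-driven luciferase luminescence, single photon counting, after 30 min at room temperature with LucLite. BHK cells expressed calcitonin receptor alone or with RAMP-3 (amylin 3(a)). Cells were stimulated 3 h at 37° C in DMEM, 10% FBS, 10 mM Hepes, pH 7.4.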

[2] = target: T2, human calcitonin (a) receptor in BHK570 cells (Homo sapiens, UniProt P30988); assay: ASSAY (II)a functional assay, human calcitonin receptor (CRE luciferase); assay type: cell-based; conditions: read-out: hCTR funct. EC50
T2 construct: expressed in transfected cells
T2 sequence (P30988 25-474): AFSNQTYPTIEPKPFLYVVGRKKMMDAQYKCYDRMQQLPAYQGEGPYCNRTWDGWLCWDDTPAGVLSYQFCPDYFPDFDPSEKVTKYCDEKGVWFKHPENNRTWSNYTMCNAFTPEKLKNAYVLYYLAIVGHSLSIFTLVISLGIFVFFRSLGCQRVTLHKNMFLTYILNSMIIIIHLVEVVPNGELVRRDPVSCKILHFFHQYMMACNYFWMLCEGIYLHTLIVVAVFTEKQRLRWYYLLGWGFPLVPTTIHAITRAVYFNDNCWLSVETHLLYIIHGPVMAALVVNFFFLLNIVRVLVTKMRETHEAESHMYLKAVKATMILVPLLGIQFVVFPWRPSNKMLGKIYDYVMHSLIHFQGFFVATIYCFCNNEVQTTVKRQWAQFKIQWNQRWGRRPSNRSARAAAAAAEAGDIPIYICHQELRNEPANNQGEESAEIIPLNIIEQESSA
In short: as §1

[3] = ASSAY (III) ThT fibrillation assay for physical stability; assay type: physicochemical
In short: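 Physical stability scored by ThT fluorescence (444 nm excitation, 485 nm emission) tracked every 20 min during 37 °C incubation with 960 rpm shaking, ThT at 1 μM final. Values are replicate means with SD at chosen times; HPLC against pramlintide standard gives initial and post-assay soluble concentrations.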

[4] = target: T3, human calcitonin receptor (Homo sapiens, UniProt P30988); assay: ASSAY (VII) binding to the human calcitonin receptor (SPA, 125I-Calcitonin); conditions: read-out: hCTR bind IC50;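 further: cell membranes (35 ng/µL) combined with SPA beads in 40 µL of pH 7.4 Hepes buffer, 384-well format, signal counted on a TopCounter instrument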
T3 construct: expressed in transfected cells
T3 sequence (P30988 25-474): T2 sequence (P30988 25-474)

[5] = hCTR funct. EC50 divided by hAmylin-R funct. EC50
[6] = hCTR funct. EC50 over hAmylin-R funct. EC50
[7] = human functional selectivity: hCTR funct. EC50 / hAmylin-R funct. EC50

Row | SMILES | Ratio hCT/hAmylin funct. [1, 5] | Ratio hCT/hAmylin funct. [1, 6] | EC50 [1] [nM] | Ratio hCT/hAmylin funct. [1, 7] | EC50 [2] [nM] | ThT pH 4.0 lag time (h) [3] [h] | IC50 [4] [nM]
1 | CC[C@H](C)[C@H](NC(=O)[C@H](C)NC(=O)CNC(=O)[C@H](Cc1ccccc1)NC(=O)[C@H](CC(N)=O)NC(=O)[C@@H]1CCCN1C(=O)[C@H](CO)NC(=O)[C@H](CO)NC(=O)[C@H](Cc1c[nH]cn1)NC(=O)[C@H](CCCNC(=N)N)NC(=O)[C@H](CC(C)C)NC(=O)[C@H](Cc1ccccc1)NC(=O)[C@@H](NC(=O)[C@H](C)NC(=O)[C@H](CC(C)C)NC(=O)[C@H](CCCNC(=N)N)NC(=O)[C@H](CCC(N)=O)NC(=O)[C@@H](NC(=O)[C@H](C)NC(=O)[C@@H]1CSSC[C@H](NC(=O)[C@@H](N)CCCCNC(=O)COCCOCCNC(=O)CC[C@H](NC(=O)CCCCCCCCCCCCCCCCCCC(=O)O)C(=O)O)C(=O)N[C@@H](CC(N)=O)C(=O)N[C@@H]([C@@H](C)O)C(=O)N[C@@H](C)C(=O)N[C@@H]([C@@H](C)O)C(=O)N1)[C@@H](C)O)[C@@H](C)O)C(=O)N1CCC[C@H]1C(=O)N[C@@H](CO)C(=O)N[C@@H](CO)C(=O)N[C@H](C(=O)N1CCC[C@H]1C(=O)N[C@H](C(=O)NCC(=O)N[C@@H](CO)C(=O)N[C@@H](CC(N)=O)C(=O)N[C@H](C(=O)N[C@@H](Cc1ccc(O)cc1)C(N)=O)[C@@H](C)O)C(C)C)[C@@H](C)O [Example 75] (H-K([AEEA-γGlu-C20 diacid])CNTATCATQRLATFLRHSSPNFGAIPSSTPVGSNTY-NH2; disulfide 2-7 (inferred); N-terminus assumed) | 30.6 | 30.6 | 0.296 | 30.6 | 9.07 | 25 | 60.9
2 | CC[C@H](C)[C@H](NC(=O)[C@H](C)NC(=O)CNC(=O)[C@H](Cc1ccccc1)NC(=O)[C@H](CC(N)=O)NC(=O)[C@@H]1CCCN1C(=O)[C@H](CO)NC(=O)[C@H](CO)NC(=O)[C@H](Cc1c[nH]cn1)NC(=O)[C@H](CCCNC(=N)N)NC(=O)[C@H](CC(C)C)NC(=O)[C@H](Cc1ccccc1)NC(=O)[C@H](CC(N)=O)NC(=O)[C@H](C)NC(=O)[C@H](CC(C)C)NC(=O)[C@H](CCCNC(=N)N)NC(=O)[C@H](CCC(N)=O)NC(=O)[C@@H](NC(=O)[C@H](C)NC(=O)[C@@H]1CSSC[C@H](NC(=O)[C@@H](N)CCCCNC(=O)COCCOCCNC(=O)CC[C@H](NC(=O)CCCCCCCCCCCCCCCCCCC(=O)O)C(=O)O)C(=O)N[C@@H](CC(N)=O)C(=O)N[C@@H]([C@@H](C)O)C(=O)N[C@@H](C)C(=O)N[C@@H]([C@@H](C)O)C(=O)N1)[C@@H](C)O)C(=O)N1CCC[C@H]1C(=O)N[C@@H](CO)C(=O)N[C@@H](CO)C(=O)N[C@H](C(=O)N[C@@H](CC(N)=O)C(=O)N[C@H](C(=O)NCC(=O)N[C@@H](CCCNC(=N)N)C(=O)N[C@@H](CC(N)=O)C(=O)N[C@H](C(=O)N[C@@H](Cc1ccc(O)cc1)C(N)=O)[C@@H](C)O)C(C)C)[C@@H](C)O [Example 78] (H-K([AEEA-γGlu-C20 diacid])CNTATCATQRLANFLRHSSPNFGAIPSSTNVGRNTY-NH2; disulfide 2-7 (inferred)) | 25.8 | 25.8 | 0.316 | 25.8 | 8.17 | 13 | 36.6
3 | CC[C@H](C)[C@H](NC(=O)[C@H](C)NC(=O)CNC(=O)[C@H](Cc1ccccc1)NC(=O)[C@H](CC(N)=O)NC(=O)[C@@H]1CCCN1C(=O)[C@H](CO)NC(=O)[C@H](CO)NC(=O)[C@H](Cc1c[nH]cn1)NC(=O)[C@H](CCCNC(=N)N)NC(=O)[C@H](CC(C)C)NC(=O)[C@H](Cc1ccccc1)NC(=O)[C@H](CC(N)=O)NC(=O)[C@H](C)NC(=O)[C@H](CC(C)C)NC(=O)[C@H](CCCNC(=N)N)NC(=O)[C@H](CCC(N)=O)NC(=O)[C@@H](NC(=O)[C@H](C)NC(=O)[C@@H]1CSSC[C@H](NC(=O)[C@@H](N)CCCCNC(=O)CC[C@H](NC(=O)CCCCCCCCCCCCCCCCCCC(=O)O)C(=O)O)C(=O)N[C@@H](CC(N)=O)C(=O)N[C@@H]([C@@H](C)O)C(=O)N[C@@H](C)C(=O)N[C@@H]([C@@H](C)O)C(=O)N1)[C@@H](C)O)C(=O)N1CCC[C@H]1C(=O)N[C@@H](CO)C(=O)N[C@@H](CO)C(=O)N[C@H](C(=O)N[C@@H](CC(N)=O)C(=O)N[C@H](C(=O)NCC(=O)N[C@@H](CCCNC(=N)N)C(=O)N[C@@H](CC(N)=O)C(=O)N[C@H](C(=O)N[C@@H](Cc1ccc(O)cc1)C(N)=O)[C@@H](C)O)C(C)C)[C@@H](C)O [Example 79] (H-K([γGlu-C20 diacid])CNTATCATQRLANFLRHSSPNFGAIPSSTNVGRNTY-NH2; disulfide 2-7 (inferred); N-terminus assumed) | 24.5 | 24.5 | 0.161 | 24.5 | 3.94 | 21 | 36.4
4 | CC[C@H](C)[C@H](NC(=O)[C@H](C)NC(=O)CNC(=O)[C@H](Cc1ccccc1)NC(=O)[C@H](CC(N)=O)NC(=O)[C@@H]1CCCN1C(=O)[C@H](CO)NC(=O)[C@H](CO)NC(=O)[C@H](Cc1c[nH]cn1)NC(=O)[C@H](CCCNC(=N)N)NC(=O)[C@H](CC(C)C)NC(=O)[C@H](Cc1ccccc1)NC(=O)[C@H](CCCNC(=N)N)NC(=O)[C@H](C)NC(=O)[C@H](CC(C)C)NC(=O)[C@H](CCCNC(=N)N)NC(=O)[C@H](CCC(N)=O)NC(=O)[C@@H](NC(=O)[C@H](C)NC(=O)[C@@H]1CSSC[C@H](NC(=O)[C@@H](N)CCCCNC(=O)COCCOCCNC(=O)CC[C@H](NC(=O)CCCCCCCCCCCCCCCCCCC(=O)O)C(=O)O)C(=O)N[C@@H](CC(N)=O)C(=O)N[C@@H]([C@@H](C)O)C(=O)N[C@@H](C)C(=O)N[C@@H]([C@@H](C)O)C(=O)N1)[C@@H](C)O)C(=O)N1CCC[C@H]1C(=O)N[C@@H](CO)C(=O)N[C@@H](CO)C(=O)N[C@H](C(=O)N[C@@H](CC(N)=O)C(=O)N[C@H](C(=O)NCC(=O)N[C@@H](CO)C(=O)N[C@@H](CC(N)=O)C(=O)N[C@H](C(=O)N[C@@H](Cc1ccc(O)cc1)C(N)=O)[C@@H](C)O)C(C)C)[C@@H](C)O [Example 82] (H-K([AEEA-γGlu-C20 diacid])CNTATCATQRLARFLRHSSPNFGAIPSSTNVGSNTY-NH2; disulfide 2-7; N-terminus assumed) | 59.2 | 59.2 | 0.215 | 59.2 | 12.7 | 12 | 88.8
